One assay relates to HT1080 cells (NRAS^Q61K). The experiment in a line: Cell viability (CellTiterGlo), HT1080. The assay is classed as cell-based, human. The following applies: for effect on cell viability: HT1080, 0–20 μM, up to 72 h; for IC50: Homo sapiens, HT-1080. How it is done: (§1) Fig. 5 Abd-7 results on RAS-dependent signalling pathways and cell viability. a, b DLD-1 (a) or H358 (b) cells were serum-starved for 24 h, incubated in mono-layer with Abd-7 in a range from 2, 5, 10 and 20 μM for 3 h and stimulated with EGF 10 min. Proteins were extracted and separated by SDS-PAGE and transferred to membranes for Western analysis with anti-pAKT, anti-pERK, anti-pan AKT and anti-pan ERK. Anti-cyclophilin B antibody was the loading control. Signal was developed using standard ECL. c–e Effects of compounds Abd-2, Abd-4, Abd-5, Abd-6, and Abd-7 on the viability of human cancer cells lines was assessed for a 2-D culture of DLD-1 (mutant KRAS^G13D) cells and HT1080 cells (mutant NRAS^Q61K). The cells were treated with a dose range from 0 μM to 20 μ and incubated for 72 h when cell viability was assessed using CellTitreGlo. […] Each experiment was repeated at least three times (a, b) and four times (c, d). Where error bars are presented, they correspond to mean values ± SD of biological repeats […]
(§2) Cancer cell lines were in seeded in ViewPlates-96 microplates (PerkinElmer). DLD-1 cells were plated at 10,000 cells per well and HT1080 cells at 7500 cells per well and cultured in DMEM, high glucose, GlutaMAX media containing 10% FBS at 37 °C in 5% CO2 atmosphere. Cells were cultured overnight and the compounds (dissolved in DMSO and diluted to 0.2% DMSO) were added to the cells at concentrations ranging from 0 to 20 μM. The cells were incubated under standard culture conditions for either 24, 48 or 72 h. Cell viability was as quantitated using the CellTiterGlo Luminescent Cell Viability Assay (Promega) according to the manufacturer’s instructions to measure ATP generated by metabolically active cells. Luminescent signals were measured using an Envision 2103 Multilabel Microplate Reader (PerkinElmer). The luminescence signals obtained from the compound-treated cells were normalized against the signal for DMSO-only treated cells. The IC50 values, calculated from the 48 and 72 h CellTiterGlo data, were generated by non-linear regression using the software GraphPad Prism 7.00 for windows (GraphPad Inc).
(§3) Supplementary Figure 7: The effect of Abd compounds on the viability of cancer cells The effect of the chemical series on the viability of human cancer cells lines DLD -1 (a colorectal cancer cell line with mutant KRAS
(§4) ) and HT1080 (a fibrosarcoma cell line with
(§5) ). The cells were treated with a dose range from […] of either
(§6) Abd-2, Abd-4, Abd-5, Abd-6 and Abd-7 and incubated for 24 or 48 hours. Cell viability was assessed using CellTitreGlo . In each case, the data are normalized to cells treated with DMSO only. Panels a and b are DLD-1 viability and panels c and d are HT1080 viability.
(§7) The IC50 for Abd-7 at 48 & 72 […]
(§8) hours are shown in panel f. Each experiment was repeated at least four times ( a to d).
(§9) Where error bars are presented, they correspond to mean values ± SD of biological repeats.
(§10) (1 picture or pasted object on this page, not shown here)
(ATP-based viability assays read luminescence as a measure of living cells.)

A further assay deals with T1, GST-KRASG12V-GppNHp (Homo sapiens, UniProt P01116, G12V).
T1 construct: made in house; host or cells: E. coli (pGEX-2T; strain named only for the HRAS plasmids)
The experiment in a line: 1H CPMG NMR protein titration for Kd. To be noted: for Kd: CPMG NMR titration, 55 μM compound, read-out: Kd (binding affinity). The assay is classed as binding. The method, then: Typical experimental parameters for Carr–Purcell-Meiboom-Gill (CPMG) NMR spectroscopy were the following: total echo time, 40 ms; relaxation delay, 2 s; and number of transients, […][53]. The PROJECT-CPMG sequence (90°x-[Ƭ-180°y-Ƭ- 90°y-Ƭ-180°y-Ƭ]n-acq) was applied. Water suppression was achieved by pre-saturation. Prior to Fourier transformation, the data were multiplied with an exponential function with 3-Hz line broadening. The CPMG experiments were conducted at a ^1H frequency of 700 MHz using a Bruker Avance with 5 mm inverse TCI 1 H/13 C/15 N cryo-probe. All experiments were conducted at 298 K and lapsed 128 scans. Furthermore, 3 mm diameter NMR tubes with a sample volume of 200 µl were used in all experiments. Solutions were buffered using a D2O PBS buffer corrected to pH 7.4. The sample preparation is exemplified as follow: with 5 µM of protein (PBS pH 7.4, 5 mM MgCl2), the compound (1.1 µl of a 10 mM (55 uM) solution in DMSO-d6) was added to an eppendorf before sequential addition of the D2O 10 mM PBS, 5 mM MgCl2 buffer adjusted to pH 7.4 (194.0 µl) and protein (4.9 µl, 205 µM, the protein is in an H2O-based buffer for stability reason). The resulting solution was vortexed to be fully mixed and transferred to a 3 mm NMR tube before the run. Negative controls (compound alone, without the protein) were prepared in a similar manner, in order to obtain an end volume of 200 µl. CPMG protein titration experiments were carried out at a fixed compound concentration and a variable protein concentration. It was estimated that 55 μM solution of the compound was optimum for a good CPMG; protein was titrate increasingly from 0 µM until the signal of the compound was undetected in the proton NMR. The integrations of the protons acquired were compared to the reference (compound alone, 0 µM of protein) in order to obtain a percentage of decrease for each concentration of protein. Three different proton signals were used and a mean was calculated for each run. Each protein concentration was run in triplicate and a mean was calculated for each concentration. Where error bars are presented, they correspond to mean values ± SD of experimental repeats. Concentration and percentage of decrease were plotted and Kd fitting was run on the generated curve using Origin® with the following function: A*(1/(2*C))*((B + x + C)-sqrt(((B + x + C)^2)-(4*x*C))) where A is the maximum % of inhibition (i.e. 100), B is the Kd and C is the concentration of the compound which should not be fixed in the Origin® Equation due to potential variations in compound solubility.
Supplementary Figure 6: Abd-7 Binding in WaterLOGSy and Kd calculations in CPMG WaterLOGSY and CPMG NMR orthogonal analysis of Abd-5 (panel a, b), Abd-6 (c, d), and Abd-7 (e, f) with GST-KRASG12V-GppNHp. For each waterLOGSY profile, the proton NMR spectrum of the compound is shown together the spectra of the compound after incubation with the KRAS (the NOE transfers occurs when the compounds displace those waters upon binding to the protein). The Kd of interaction of the compounds come from fitting a binding curve (right of panels b, d, f) of a CPMG titration (shown on the left of panels b, d, f). The calculated Kd is shown for each compound.
(MW), Kd, Solubility and ligand efficiency (LE). Each experiment was repeated at least three times. Where error bars are presented, they correspond to mean values ± SD of experimental repeats (b, d and f).

In the next assay the test system is DLD-1 cells (KRAS^G13D). Kind of assay: Cell viability (CellTiterGlo), DLD-1. The following applies: for effect on cell viability: DLD-1, 0–20 μM, up to 72 h; for IC50: Homo sapiens. The assay is classed as cell-based, human. The method, then:
as §1, §2, §3, §4, §5, §6, §7, §8, §9, §10

Where “and” joins values, the source holds several entries; their conditions need not be identical. Equal values may be shown once. Entries after “also recorded” stand apart in the source; their conditions may differ. Read-outs that look alike come from different tables or passages of the source.

Broadly, the Kd is the constant that tells how readily two partners part at equilibrium. For orientation: IC50 means the midpoint of a concentration-inhibition curve.

For the compound `COc1nc(-c2cccc3c2O[C@H](CNC(=O)C2CCOCC2)CO3)ccc1Nc1cccc(CN(C)C)c1` [Abd-6], the “effect on cell viability” value in the assay on HT1080 cells (NRAS^Q61K) was “have an effect on the viability”. Besides, on GST-KRASG12V-GppNHp, the ligand efficiency is on record as roughly 0.3 and the equilibrium dissociation constant (Kd) worked out at 0.038 µM. Further, in the assay with DLD-1 cells (KRAS^G13D), the “effect on cell viability” value is reported as “have an effect on the viability”.
In the case of `COc1cccc(-c2cccc3c2OC(CNC(=O)c2ccc(OCCN(C)C)cc2)CO3)n1` (stereo not drawn) [Abd-5], the “effect on cell viability” value in the assay with HT1080 cells (NRAS^Q61K) and in the assay on DLD-1 cells (KRAS^G13D) was “have an effect on the viability” throughout. Also, the ligand efficiency on GST-KRASG12V-GppNHp is on record as roughly 0.3. At GST-KRASG12V-GppNHp, the Kd was 0.22 µM.
Turning to `O=C(NCC1COc2ccccc2O1)c1ccco1` (stereo not drawn) [Abd-2], the “effect on cell viability” value in the assay on HT1080 cells (NRAS^Q61K) and in the assay with DLD-1 cells (KRAS^G13D) was “no effect on cell viability; also recorded: had not effect” each time.
`COc1nc(-c2cccc3c2OCCO3)ccc1Nc1ccc(CN(C)C)cc1` [Abd-7]: the IC50 in the assay on HT1080 cells (NRAS^Q61K) (HT1080, 48 h, Supplementary Fig. 7f, read-out: HT1080 IC50 48h) was 9.4 µM; in the assay on HT1080 cells (NRAS^Q61K) (HT1080, 48 h as printed in discussion, read-out: IC50 cell viability), roughly 10 µM; in the assay with HT1080 cells (NRAS^Q61K) (HT1080, 72 h, read-out: IC50 cell viability), 10 µM; in the assay on DLD-1 cells (KRAS^G13D) (DLD-1, 72 h, read-out: IC50 cell viability), 8 µM; in the assay with DLD-1 cells (KRAS^G13D) (DLD-1, 48 h, Supplementary Fig. 7f, read-out: DLD-1 IC50 48h) it was 9.8 µM; in the assay with DLD-1 cells (KRAS^G13D) (DLD-1, 48 h as printed in discussion, read-out: IC50 cell viability), roughly 8 µM. Further, at GST-KRASG12V-GppNHp, the ligand efficiency was ~0.3 and 0.34. Further, the Kd at GST-KRASG12V-GppNHp turned out to be 0.051 µM.
